Values of other authors in US10980856B2, “Composition and method for treating plantar fasciitis in humans” (priority 2017, dated 2021).

Assays:
[1] = system: human peripheral blood monocytes; conditions: after 40 hours
[2] = system: Balb/c mice injected with histamine; conditions: applied immediately after histamine injection

| SMILES | inhibition of lipopolysaccharide-induced production of IL-10 [1] [%] | inhibition of lipopolysaccharide-induced production of TNF-α [1] [%] | inhibition of lipopolysaccharide-induced production of interleukin-1b (IL-1b) [1] [%] | inhibition of lipopolysaccharide-induced production of prostaglandin E2 [1] [%] | superoxide production by agonist-stimulated monocytes (monocytes) | histamine-induced skin edema [2] |
| --- | --- | --- | --- | --- | --- | --- |
| CC1=CCC(O)(C(C)C)CC1 (stereo not shown) [terpinen-4-ol] | 50 | 50 | 50 | 30 | suppress | reduced |
| CC1=CC[C@@H](C(C)(C)O)CC1 [a-terpineol] |  |  |  |  | suppress |  |
